{
  "source": "paper PMC10426190",
  "about": "(Breast Cancer Research : BCR, 2023)",
  "test_system": "E2-induced (ER target) genes in MCF7",
  "test": "Gene expression analysis by RNA-sequencing in MCF7 with E2 stimulation",
  "assay_type": "cell-based, human",
  "details": "MCF7; 1 nM E2 ± 1 μM compound, 24 h",
  "description": "MCF7 were cultured in hormone deprivation media (with 10% charcoal-stripped FBS) for at least 3 days before assay. Trypsinized cells were seeded in a 12-well plate, stimulated with 1 nM β-estradiol (E2), and treated with/without 1 μM compounds for 24 h. Total RNA was extracted using the TRIzol reagent according to the manufacturer’s protocol. RNA purity and quantification were evaluated using the NanoDrop 2000 spectrophotometer (Thermo Scientific, USA). RNA integrity was assessed using the Agilent 2100 Bioanalyzer (Agilent Technologies, Santa Clara, CA, USA). Then the libraries were constructed using TruSeq Stranded mRNA LT Sample Prep Kit (Illumina, San Diego, CA, USA) according to the manufacturer’s instructions. The transcriptome sequencing and analysis were conducted by OE Biotech Co., Ltd. (Shanghai, China). The libraries were sequenced on an Illumina HiSeq X Ten platform and 150 bp paired-end reads were generated. […] Raw data (raw reads) of FASTq format were firstly processed using Trimmomatic and the low-quality reads were removed to obtain the clean reads. […] The clean reads were mapped to the human genome (GRCh38) using HISAT2 [27]. FPKM [28] of each gene was calculated using Cufflinks, and the read counts of each gene were obtained by HTSeqcount. Differential expression analysis was performed using the DESeq (2012) R package.\nMCF7 with hormone-deprived pre-treatment were administrated ER ligands or not present with 1 nM E2 stimulation for 24 h incubation in a 12-well plate. Total mRNA was isolated from treated cells and sequenced on an Illumina HiSeq X Ten platform. FPKM of each gene was calculated using Cufflinks and Differential expression genes analysis by using the DESeq (2012) R package. […] T47D EFM-19 and HCC1500 cells were grown in RPMI media supplemented with 10% charcoal-stripped FBS for 14 days and then treated with ER antagonist (1 μM) or DMSO in the presence E2 (1nM) stimulation for 24 h before RNA isolation and gene expression analysis as described in methods. […] The uteruses were harvested 24 h after the final doses and stained by toluidine blue. Endometrial height was assessed from the basement membrane to the luminal border (scale bar in green lines: 200 μm), Arrows indicate the uterine epithelium (e).",
  "data": [
    {"smiles": "CC/C(=C(\\c1ccc(O)cc1)c1ccc(OCCN(C)C)cc1)c1ccccc1", "note": "[4-OH-tamoxifen]", "values": [
      {"measurement": "KIF18B expression", "value": 3.84, "unit": "FPKM"},
      {"measurement": "KIFC1 expression", "value": 15.12, "unit": "FPKM"},
      {"measurement": "KLK11 expression", "value": 4.66, "unit": "FPKM"},
      {"measurement": "KNL1 expression", "value": 4.05, "unit": "FPKM"},
      {"measurement": "KNTC1 expression", "value": 6.86, "unit": "FPKM"},
      {"measurement": "LHX2 expression", "value": 1.62, "unit": "FPKM"},
      {"measurement": "LIG1 expression", "value": 23.58, "unit": "FPKM"},
      {"measurement": "LMNB1 expression", "value": 53.86, "unit": "FPKM"},
      {"measurement": "MAD2L1 expression", "value": 7.76, "unit": "FPKM"},
      {"measurement": "MCM2 expression", "value": 31.78, "unit": "FPKM"},
      {"measurement": "MCM3 expression", "value": 34.54, "unit": "FPKM"},
      {"measurement": "MCM4 expression", "value": 49.01, "unit": "FPKM"},
      {"measurement": "MCM5 expression", "value": 13.27, "unit": "FPKM"},
      {"measurement": "MCM6 expression", "value": 24.55, "unit": "FPKM"},
      {"measurement": "MCM7 expression", "value": 84.30, "unit": "FPKM"},
      {"measurement": "MCM10 expression", "value": 3.64, "unit": "FPKM"},
      {"measurement": "MELK expression", "value": 11.34, "unit": "FPKM"},
      {"measurement": "MKI67 expression", "value": 21.80, "unit": "FPKM"},
      {"measurement": "MYB expression", "value": 5.81, "unit": "FPKM"},
      {"measurement": "MYBL1 expression", "value": 1.32, "unit": "FPKM"},
      {"measurement": "MYBL2 expression", "value": 46.03, "unit": "FPKM"},
      {"measurement": "NCAPG2 expression", "value": 19.25, "unit": "FPKM"},
      {"measurement": "NCAPG expression", "value": 7.03, "unit": "FPKM"},
      {"measurement": "NPY1R expression", "value": 8.44, "unit": "FPKM"},
      {"measurement": "ORC1 expression", "value": 3.13, "unit": "FPKM"},
      {"measurement": "ORC6 expression", "value": 7.62, "unit": "FPKM"},
      {"measurement": "PAQR4 expression", "value": 12.98, "unit": "FPKM"},
      {"measurement": "PBK expression", "value": 16.47, "unit": "FPKM"},
      {"measurement": "PCLAF expression", "value": 33.01, "unit": "FPKM"},
      {"measurement": "PCNA expression", "value": 59.31, "unit": "FPKM"},
      {"measurement": "PDZK1 expression", "value": 3.59, "unit": "FPKM"},
      {"measurement": "PGR expression", "value": 1.93, "unit": "FPKM"},
      {"measurement": "PKIB expression", "value": 26.05, "unit": "FPKM"},
      {"measurement": "PKMYT1 expression", "value": 12.25, "unit": "FPKM"},
      {"measurement": "POLA1 expression", "value": 3.09, "unit": "FPKM"},
      {"measurement": "POLA2 expression", "value": 5.57, "unit": "FPKM"},
      {"measurement": "POLD1 expression", "value": 11.86, "unit": "FPKM"},
      {"measurement": "POLE2 expression", "value": 2.61, "unit": "FPKM"},
      {"measurement": "POLE expression", "value": 12.83, "unit": "FPKM"},
      {"measurement": "POLQ expression", "value": 2.74, "unit": "FPKM"},
      {"measurement": "PRIM1 expression", "value": 10.94, "unit": "FPKM"},
      {"measurement": "PRSS23 expression", "value": 68.31, "unit": "FPKM"},
      {"measurement": "RAB31 expression", "value": 11.89, "unit": "FPKM"},
      {"measurement": "RAD51AP1 expression", "value": 5.44, "unit": "FPKM"},
      {"measurement": "RAD51 expression", "value": 4.02, "unit": "FPKM"},
      {"measurement": "RAD54L expression", "value": 4.39, "unit": "FPKM"},
      {"measurement": "RAMP3 expression", "value": 3.44, "unit": "FPKM"},
      {"measurement": "RAPGEFL1 expression", "value": 6.63, "unit": "FPKM"},
      {"measurement": "RBL1 expression", "value": 2.35, "unit": "FPKM"},
      {"measurement": "RECQL4 expression", "value": 13.74, "unit": "FPKM"},
      {"measurement": "RERG expression", "value": 3.48, "unit": "FPKM"},
      {"measurement": "RET expression", "value": 4.49, "unit": "FPKM"},
      {"measurement": "RFC2 expression", "value": 18.64, "unit": "FPKM"},
      {"measurement": "RFC3 expression", "value": 4.62, "unit": "FPKM"},
      {"measurement": "RFC4 expression", "value": 14.31, "unit": "FPKM"},
      {"measurement": "RNASEH2A expression", "value": 30.81, "unit": "FPKM"},
      {"measurement": "RRM1 expression", "value": 20.41, "unit": "FPKM"},
      {"measurement": "RRM2 expression", "value": 33.29, "unit": "FPKM"},
      {"measurement": "RUBCNL expression", "value": 1.01, "unit": "FPKM"},
      {"measurement": "SDK2 expression", "value": 0.95, "unit": "FPKM"},
      {"measurement": "SFXN2 expression", "value": 8.23, "unit": "FPKM"},
      {"measurement": "SHCBP1 expression", "value": 3.43, "unit": "FPKM"},
      {"measurement": "SKA3 expression", "value": 5.48, "unit": "FPKM"},
      {"measurement": "SLC6A14 expression", "value": 24.37, "unit": "FPKM"},
      {"measurement": "SMC2 expression", "value": 7.20, "unit": "FPKM"},
      {"measurement": "SPC24 expression", "value": 7.06, "unit": "FPKM"},
      {"measurement": "SPC25 expression", "value": 7.65, "unit": "FPKM"},
      {"measurement": "STC2 expression", "value": 84.89, "unit": "FPKM"},
      {"measurement": "TACC3 expression", "value": 21.35, "unit": "FPKM"},
      {"measurement": "TCF19 expression", "value": 8.96, "unit": "FPKM"},
      {"measurement": "TCOF1 expression", "value": 10.86, "unit": "FPKM"},
      {"measurement": "TGM2 expression", "value": 3.69, "unit": "FPKM"},
      {"measurement": "TICRR expression", "value": 4.37, "unit": "FPKM"},
      {"measurement": "TK1 expression", "value": 57.95, "unit": "FPKM"},
      {"measurement": "TMEM26 expression", "value": 2.14, "unit": "FPKM"},
      {"measurement": "TMEM164 expression", "value": 10.65, "unit": "FPKM"},
      {"measurement": "TONSL expression", "value": 9.87, "unit": "FPKM"},
      {"measurement": "TOP2A expression", "value": 30.91, "unit": "FPKM"},
      {"measurement": "TP73 expression", "value": 1.32, "unit": "FPKM"},
      {"measurement": "TRIP13 expression", "value": 8.37, "unit": "FPKM"},
      {"measurement": "TUBA1B expression", "value": 555.45, "unit": "FPKM"},
      {"measurement": "TUBB expression", "value": 291.22, "unit": "FPKM"},
      {"measurement": "TYMS expression", "value": 31.45, "unit": "FPKM"},
      {"measurement": "UBE2C expression", "value": 31.96, "unit": "FPKM"},
      {"measurement": "UBE2T expression", "value": 41.94, "unit": "FPKM"},
      {"measurement": "UHRF1 expression", "value": 9.20, "unit": "FPKM"},
      {"measurement": "UNG expression", "value": 32.49, "unit": "FPKM"},
      {"measurement": "WDHD1 expression", "value": 4.95, "unit": "FPKM"},
      {"measurement": "WDR62 expression", "value": 5.88, "unit": "FPKM"},
      {"measurement": "WDR76 expression", "value": 1.87, "unit": "FPKM"},
      {"measurement": "XRCC2 expression", "value": 3.37, "unit": "FPKM"},
      {"measurement": "XRCC3 expression", "value": 8.89, "unit": "FPKM"},
      {"measurement": "ZGRF1 expression", "value": 1.82, "unit": "FPKM"},
      {"measurement": "ZNF367 expression", "value": 5.84, "unit": "FPKM"}
    ]}
  ]
}
